Test results as given in PubChem BioAssay AID256 (DTP/NCI, 2004).
Where “and” joins values, the source holds several entries; their conditions need not be identical. Equal values may be shown once. Inconclusive results and toxic doses are left out. Rule for the calls: active = survival T/C of 150% or more; inactive = T/C below 125% in these data.

Test system: CD2F1 mice, L1210 leukemia ip, survival T/C
Experiment: NCI In Vivo Anticancer Drug Screen. Data for tumor model L1210 Leukemia (intraperitoneal) in CD2F1 (CDF1) mice
Details: higher = longer survival
How it was run: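 Read-out first: treated-group measurement over vehicle-control measurement, expressed as a ratio. Animals bore a transplanted tumor line and were dosed with compound or vehicle.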

[1] = endpoint: mean survival time, dose: 100.0 mg/kg/injection, schedule: Q04DX003 (ip), vehicle: saline
[2] = endpoint: mean survival time, dose: 200.0 mg/kg/injection, schedule: Q04DX003 (ip), vehicle: saline
[3] = endpoint: mean survival time, dose: 400.0 mg/kg/injection, schedule: Q04DX003 (ip), vehicle: saline
[4] = endpoint: mean survival time, dose: 200.0 mg/kg/injection, schedule: Q04DX002 (ip), vehicle: saline with Tween-80
[5] = endpoint: mean survival time, dose: 400.0 mg/kg/injection, schedule: Q04DX002 (ip), vehicle: saline with Tween-80
[6] = endpoint: mean survival time, dose: 100.0 mg/kg/injection, schedule: Q01DX001 (ip), vehicle: saline with Tween-80
[7] = endpoint: mean survival time, dose: 200.0 mg/kg/injection, schedule: Q01DX001 (ip), vehicle: saline with Tween-80
[8] = endpoint: mean survival time, dose: 400.0 mg/kg/injection, schedule: Q01DX001 (ip), vehicle: saline with Tween-80
[9] = endpoint: mean survival time, dose: 100.0 mg/kg/injection, schedule: Q04DX003 (ip), vehicle: saline with Tween-80
[10] = endpoint: mean survival time, dose: 200.0 mg/kg/injection, schedule: Q04DX003 (ip), vehicle: saline with Tween-80
[11] = endpoint: mean survival time, dose: 100.0 mg/kg/injection, schedule: Q04DX002 (ip), vehicle: saline with Tween-80
[12] = endpoint: mean survival time, dose: 100.0 mg/kg/injection, schedule: Q01DX001 (ip), vehicle: Klucel (hydroxypropylcellulose) (HPC)
[13] = endpoint: mean survival time, dose: 200.0 mg/kg/injection, schedule: Q01DX001 (ip), vehicle: Klucel (hydroxypropylcellulose) (HPC)
[14] = endpoint: mean survival time, dose: 400.0 mg/kg/injection, schedule: Q01DX001 (ip), vehicle: Klucel (hydroxypropylcellulose) (HPC)
[15] = endpoint: mean survival time, dose: 100.0 mg/kg/injection, schedule: Q01DX001 (ip), vehicle: saline
[16] = endpoint: mean survival time, dose: 200.0 mg/kg/injection, schedule: Q01DX001 (ip), vehicle: saline
[17] = endpoint: mean survival time, dose: 400.0 mg/kg/injection, schedule: Q01DX001 (ip), vehicle: saline
[18] = endpoint: mean survival time, dose: 100.0 mg/kg/injection, schedule: Q01DX009 (ip), vehicle: saline with Tween-80
[19] = endpoint: mean survival time, dose: 200.0 mg/kg/injection, schedule: Q01DX009 (ip), vehicle: saline with Tween-80
[20] = endpoint: mean survival time, dose: 400.0 mg/kg/injection, schedule: Q01DX009 (ip), vehicle: saline with Tween-80
[21] = endpoint: mean survival time, dose: 400.0 mg/kg/injection, schedule: Q04DX003 (ip), vehicle: saline with Tween-80
[22] = endpoint: mean survival time, dose: 50.0 mg/kg/injection, schedule: Q01DX009 (ip), vehicle: saline with Tween-80

Measured: T/C

COc1ccc(Cc2ccc(O)cc2)cc1
inactive: endpoint: mean survival time, dose: 100.0 mg/kg/injection, schedule: Q01DX009 (ip), vehicle: other 101 % of control | endpoint: mean survival time, dose: 200.0 mg/kg/injection, schedule: Q01DX009 (ip), vehicle: other 101 % of control | endpoint: mean survival time, dose: 400.0 mg/kg/injection, schedule: Q01DX009 (ip), vehicle: other 104 % of control

COc1ccc(/C=C/C(=O)c2ccc3c(c2)OCO3)cc1OC
inactive: [1] 91 % of control | [2] 93 % of control | [3] 95 % of control

COc1ccc(NC(=O)Nc2cccc([N+](=O)[O-])c2OC)cc1
inactive: [4] 86 % of control | [5] 96 % of control

C/C(C(=O)O)=C(\C)C(=O)O
inactive: endpoint: mean survival time, dose: 100.0 mg/kg/injection, schedule: Q01DX005 (ip), vehicle: saline 101 % of control | endpoint: mean survival time, dose: 200.0 mg/kg/injection, schedule: Q01DX005 (ip), vehicle: saline 101 % of control | endpoint: mean survival time, dose: 400.0 mg/kg/injection, schedule: Q01DX005 (ip), vehicle: saline 101 % of control

CC(C)(SCC(N)C(=O)O)c1ccc(-c2ccccc2)cc1 (stereo unspecified)
inactive: [6] 88 % of control | [7] 86 % of control | [8] 91 % of control

COc1ccc(Br)cc1C1OC(=O)c2c(OC)c(OC)cc([N+](=O)[O-])c21 (stereo unspecified)
inactive: [9] 92 % of control | [10] 93 % of control

Cc1cc(C)nc(NC(=S)N/N=C/c2ccc(O)cn2)n1
inactive: [11] 87 % of control | [4] 91 % of control | [5] 91 % of control

Cc1ccc(S(=O)(=O)Nc2ccccc2SSc2ccccc2NS(=O)(=O)c2ccc(C)cc2)cc1
inactive: [12] 96 % of control | [13] 96 % of control | [14] 90 % of control

O=C(C=C(C(F)(F)F)C(F)(F)F)c1ccc(C(=O)C=C(C(F)(F)F)C(F)(F)F)cc1
inactive: [9] 105 % of control | [10] 93 % of control

CCCN(CCC)S(=O)(=O)c1ccc(NC(=O)OC2CC(C)CCC2C(C)C)cc1 (stereo unspecified)
inactive: [15] 105 % of control | [16] 100 % of control | [17] 95 % of control

CCOC(=O)NC(CCl)C(=O)OC (stereo unspecified)
inactive: [18] 104 % of control | [19] 98 % of control | [20] 98 % of control

O=C1CC(c2ccccc2)=NCCN1
inactive: [12] 100 % of control | [13] 102 % of control | [14] 103 % of control

COC(Cc1ccccc1)(c1ccccc1)c1ccccc1
inactive: [11] 95 % of control | [4] 102 % of control | [5] 91 % of control

COc1ccc2c[n+](C)c3c4cc(OC)c(OC)cc4ccc3c2c1
inactive: endpoint: mean survival time, dose: 25.0 mg/kg/injection, schedule: Q04DX003 (ip), vehicle: saline with Tween-80 96 % of control

Cc1ccc2c(c1)=N/C(=N\c1nc(O)c(O)[nH]1)N=2
inactive: [18] 104 % of control | [19] 92 % of control | [20] 104 % of control

O=C1NCC(C2CC2)(C2CC2)O1
inactive: [11] 108 % of control | [4] 100 % of control | [5] 100 % of control

Brc1ccccc1C=C1c2ccccc2-c2ccccc21
inactive: [18] 100 % of control | [19] 102 % of control | [20] 106 % of control

CCOC1(C(C)C)CCC(C)/C(=C\c2ccc([N+](=O)[O-])cc2)C1=O (stereo unspecified)
inactive: [9] 93 % of control | [10] 93 % of control | [21] 96 % of control

CCCOC(=O)c1cc([N+](=O)[O-])cc([N+](=O)[O-])c1Sc1ncnc2nc[nH]c12
inactive: endpoint: mean survival time, dose: 0.63 mg/kg/injection, schedule: Q01DX005 (ip), vehicle: other 102 % of control | endpoint: mean survival time, dose: 1.25 mg/kg/injection, schedule: Q01DX005 (ip), vehicle: other 105 % of control | endpoint: mean survival time, dose: 2.5 mg/kg/injection, schedule: Q01DX005 (ip), vehicle: other 102 % of control | endpoint: mean survival time, dose: 5.0 mg/kg/injection, schedule: Q01DX005 (ip), vehicle: other 105 % of control | endpoint: mean survival time, dose: 10.0 mg/kg/injection, schedule: Q01DX005 (ip), vehicle: other 105 % of control | endpoint: mean survival time, dose: 20.0 mg/kg/injection, schedule: Q01DX005 (ip), vehicle: other 106 % of control | endpoint: mean survival time, dose: 40.0 mg/kg/injection, schedule: Q01DX005 (ip), vehicle: other 113 % of control

COc1cc(Br)c(CC2c3cc(OC)c(OC)cc3CCN2C)cc1OC (stereo unspecified)
inactive: [15] 101 % of control | [16] 101 % of control

NC(=S)c1ncnc2c1ncn2C1OC(CO)C(O)C1O (stereo unspecified)
inactive: endpoint: median survival time, dose: 8.75 mg/kg/injection, schedule: Q01DX005 (ip), vehicle: water 103 % of control | endpoint: median survival time, dose: 17.5 mg/kg/injection, schedule: Q01DX005 (ip), vehicle: water 103 % of control and 107 % of control | endpoint: median survival time, dose: 35.0 mg/kg/injection, schedule: Q01DX005 (ip), vehicle: water 120 % of control and 111 % of control | endpoint: median survival time, dose: 70.0 mg/kg/injection, schedule: Q01DX005 (ip), vehicle: water 122 % of control and 124 % of control

COC1=CC(=O)C=C(OC)C1=O
inactive: endpoint: mean survival time, dose: 4.0 mg/kg/injection, schedule: Q01DX009 (ip), vehicle: saline 96 % of control | endpoint: mean survival time, dose: 8.0 mg/kg/injection, schedule: Q01DX009 (ip), vehicle: saline 98 % of control | endpoint: mean survival time, dose: 16.0 mg/kg/injection, schedule: Q01DX009 (ip), vehicle: saline 96 % of control

CC(=O)O.[La]
inactive: [16] 94 % of control

COC(=O)c1ccccc1N=NNc1ccc(C(F)(F)F)c([N+](=O)[O-])c1
inactive: [18] 103 % of control | [19] 95 % of control | [20] 95 % of control

CCOC(=O)C(Br)(C(=O)OCC)C(c1ccccc1)c1ccccc1
inactive: [9] 98 % of control | [10] 89 % of control | [21] 93 % of control

NC(N)=N/N=C/c1ccc(Cl)cc1
inactive: endpoint: mean survival time, dose: 20.0 mg/kg/injection, schedule: Q01DX009 (ip), vehicle: Klucel (hydroxypropylcellulose) (HPC) 100 % of control | endpoint: mean survival time, dose: 40.0 mg/kg/injection, schedule: Q01DX009 (ip), vehicle: Klucel (hydroxypropylcellulose) (HPC) 96 % of control

CN(C)CC(Cl)CCl (stereo unspecified)
inactive: endpoint: mean survival time, dose: 12.5 mg/kg/injection, schedule: Q01DX009 (ip), vehicle: saline 98 % of control | endpoint: mean survival time, dose: 25.0 mg/kg/injection, schedule: Q01DX009 (ip), vehicle: saline 98 % of control | endpoint: mean survival time, dose: 50.0 mg/kg/injection, schedule: Q01DX009 (ip), vehicle: saline 104 % of control | endpoint: mean survival time, dose: 100.0 mg/kg/injection, schedule: Q01DX009 (ip), vehicle: saline 105 % of control and 108 % of control | endpoint: mean survival time, dose: 200.0 mg/kg/injection, schedule: Q01DX009 (ip), vehicle: saline 116 % of control and 101 % of control

O=C(O)CCC(=O)CCC(=O)c1ccc2ccccc2c1
inactive: [15] 98 % of control | [16] 98 % of control | [17] 95 % of control

c1cnc2c(c1)CCCC2
inactive: endpoint: mean survival time, dose: 12.5 mg/kg/injection, schedule: Q01DX009 (ip), vehicle: saline with Tween-80 95 % of control | endpoint: mean survival time, dose: 25.0 mg/kg/injection, schedule: Q01DX009 (ip), vehicle: saline with Tween-80 91 % of control | [22] 87 % of control

CCSc1nc(C)cc(Cl)n1
inactive: [22] 102 % of control | [18] 104 % of control | [19] 105 % of control

Cc1ccc(NC(=O)Nc2cccc(CNC(=O)COc3ccc(Cl)cc3C(=O)O)c2)cc1S(=O)(=O)F
inactive: endpoint: mean survival time, dose: 25.0 mg/kg/injection, schedule: Q01DX001 (ip), vehicle: saline with Tween-80 102 % of control | endpoint: mean survival time, dose: 50.0 mg/kg/injection, schedule: Q01DX001 (ip), vehicle: saline with Tween-80 96 % of control | [6] 93 % of control | [7] 86 % of control | [8] 88 % of control

CCCCS(=O)(=O)OCCCCOS(=O)(=O)CCCC
inactive: [1] 96 % of control | [2] 95 % of control | [3] 101 % of control
